Measurements from PubChem BioAssay AID1259407 (Chemical Carcinogenesis Research Information System (CCRIS), 2018).
Active and inactive are the calls of the source. No rule for the calls is given here.

Tested on: CCRIS mutagenicity, Ames/micronucleus/aberration tests
Assay: CCRIS mutagenicity studies
[1] = Test System: AMES SALMONELLA TYPHIMURIUM, Strain/Indicator: TA98, Metabolic Activation: NONE, Method: STANDARD PLATE
[2] = Test System: AMES SALMONELLA TYPHIMURIUM, Strain/Indicator: TA98, Metabolic Activation: RAT, LIVER, S-9, Method: STANDARD PLATE
[3] = Test System: AMES SALMONELLA TYPHIMURIUM, Strain/Indicator: TA100, Metabolic Activation: NONE, Method: STANDARD PLATE
[4] = Test System: AMES SALMONELLA TYPHIMURIUM, Strain/Indicator: TA100, Metabolic Activation: RAT, LIVER, S-9, Method: STANDARD PLATE
[5] = Test System: AMES SALMONELLA TYPHIMURIUM, Strain/Indicator: TA1535, Metabolic Activation: NONE, Method: STANDARD PLATE
[6] = Test System: AMES SALMONELLA TYPHIMURIUM, Strain/Indicator: TA1535, Metabolic Activation: RAT, LIVER, S-9, Method: STANDARD PLATE
[7] = Test System: AMES SALMONELLA TYPHIMURIUM, Strain/Indicator: TA1537, Metabolic Activation: NONE, Method: STANDARD PLATE
[8] = Test System: AMES SALMONELLA TYPHIMURIUM, Strain/Indicator: TA1537, Metabolic Activation: RAT, LIVER, S-9, Method: STANDARD PLATE
[9] = Test System: AMES SALMONELLA TYPHIMURIUM, Strain/Indicator: TA98, Metabolic Activation: NONE, Method: PREINCUBATION
[10] = Test System: AMES SALMONELLA TYPHIMURIUM, Strain/Indicator: TA100, Metabolic Activation: NONE, Method: PREINCUBATION

Measured: mutagenic call

OC[C@H]1OC(O[C@H]2[C@H](O)[C@@H](O)C(O[C@H]3[C@H](O)[C@@H](O)[C@@H](O)O[C@@H]3CO)O[C@@H]2CO)[C@H](O)[C@@H](O)[C@@H]1O (stereo partly drawn)
inactive: [1] inactive; negative | [2] inactive; negative | [3] inactive; negative | [4] inactive; negative | [5] inactive; negative | [6] inactive; negative | [7] inactive; negative | [8] inactive; negative | Test System: E. COLI, Strain/Indicator: WP2 UVRA, Metabolic Activation: NONE, Method: STANDARD PLATE inactive; negative | Test System: E. COLI, Strain/Indicator: WP2 UVRA, Metabolic Activation: RAT, LIVER, S-9, Method: STANDARD PLATE inactive; negative

COc1nncc2ccncc12
inactive: [9] inactive; negative | Test System: AMES SALMONELLA TYPHIMURIUM, Strain/Indicator: TA98, Metabolic Activation: RAT, LIVER, S-9, PCB, Method: PREINCUBATION inactive; negative | [10] inactive; negative | Test System: AMES SALMONELLA TYPHIMURIUM, Strain/Indicator: TA100, Metabolic Activation: RAT, LIVER, S-9, PCB, Method: PREINCUBATION inactive; negative

C[C@H]1CCC[C@H](O)CCCCCc2cc(O)cc(O)c2C(=O)O1
inactive: [1] inactive; negative | [2] inactive; negative | [3] inactive; negative; toxicity at 1000 ug/plate | [4] inactive; negative | [5] inactive; negative | [6] inactive; negative | [7] inactive; negative; toxicity at 1000 ug/plate | [8] inactive; negative; toxicity at 1000 ug/plate | Test System: AMES SALMONELLA TYPHIMURIUM, Strain/Indicator: TA1538, Metabolic Activation: NONE, Method: STANDARD PLATE inactive; negative | Test System: AMES SALMONELLA TYPHIMURIUM, Strain/Indicator: TA1538, Metabolic Activation: RAT, LIVER, S-9, Method: STANDARD PLATE inactive; negative; toxicity at 1000 ug/plate

O=[N+]([O-])c1c2c3c(ccc4cccc(c43)CC2)c2ccccc12
active: [1] active; positive
inactive: [3] inactive; negative

Cc1cc2cc3cc(C)c(N)cc3nc2cc1N
active: Test System: AMES SALMONELLA TYPHIMURIUM, Strain/Indicator: TA98, Method: PREINCUBATION active; positive | Test System: AMES SALMONELLA TYPHIMURIUM, Strain/Indicator: TA100, Method: PREINCUBATION active; positive

O=C(O)/C=C/C(=O)O
inactive: Test System: AMES SALMONELLA TYPHIMURIUM, Strain/Indicator: TA97, Metabolic Activation: HAMSTER, LIVER, S-9, AROCLOR 1254 (10 OR 30%), Method: PREINCUBATION inactive; negative | Test System: AMES SALMONELLA TYPHIMURIUM, Strain/Indicator: TA97, Metabolic Activation: NONE, Method: PREINCUBATION inactive; negative | Test System: AMES SALMONELLA TYPHIMURIUM, Strain/Indicator: TA97, Metabolic Activation: RAT, LIVER, S-9, AROCLOR 1254 (10 OR 30%), Method: PREINCUBATION inactive; negative | Test System: AMES SALMONELLA TYPHIMURIUM, Strain/Indicator: TA97, Metabolic Activation: RAT, LIVER, S-9, AROCLOR 1254, Method: PREINCUBATION inactive; negative | Test System: AMES SALMONELLA TYPHIMURIUM, Strain/Indicator: TA98, Metabolic Activation: HAMSTER, LIVER, S-9, AROCLOR 1254 (10 OR 30%), Method: PREINCUBATION inactive; negative | [9] inactive; negative | Test System: AMES SALMONELLA TYPHIMURIUM, Strain/Indicator: TA98, Metabolic Activation: RAT, LIVER, S-9, AROCLOR 1254 (10 OR 30%), Method: PREINCUBATION inactive; negative | Test System: AMES SALMONELLA TYPHIMURIUM, Strain/Indicator: TA100, Metabolic Activation: HAMSTER, LIVER, S-9, AROCLOR 1254 (10 OR 30%), Method: PREINCUBATION inactive; negative | [10] inactive; negative | Test System: AMES SALMONELLA TYPHIMURIUM, Strain/Indicator: TA100, Metabolic Activation: RAT, LIVER, S-9, AROCLOR 1254 (10 OR 30%), Method: PREINCUBATION inactive; negative | Test System: AMES SALMONELLA TYPHIMURIUM, Strain/Indicator: TA102, Metabolic Activation: NONE, Method: PREINCUBATION inactive; negative | Test System: AMES SALMONELLA TYPHIMURIUM, Strain/Indicator: TA102, Metabolic Activation: RAT, LIVER, S-9, AROCLOR 1254, Method: PREINCUBATION inactive; negative | Test System: AMES SALMONELLA TYPHIMURIUM, Strain/Indicator: TA1535, Metabolic Activation: HAMSTER, LIVER, S-9, AROCLOR 1254 (10 OR 30%), Method: PREINCUBATION inactive; negative | Test System: AMES SALMONELLA TYPHIMURIUM, Strain/Indicator: TA1535, Metabolic Activation: NONE, Method: PREINCUBATION inactive; negative | Test System: AMES SALMONELLA TYPHIMURIUM, Strain/Indicator: TA1535, Metabolic Activation: RAT, LIVER, S-9, AROCLOR 1254 (10 OR 30%), Method: PREINCUBATION inactive; negative
active: Test System: MOUSE LYMPHOMA, Strain/Indicator: L5178Y (TK+/TK-), Metabolic Activation: NONE, Method: SUSPENSION/PLATE active; positive. reevaluation of results: positive | Test System: MOUSE LYMPHOMA, Strain/Indicator: L5178Y (TK+/TK-), Metabolic Activation: RAT, LIVER, S-9, AROCLOR 1254, Method: SUSPENSION/PLATE active; positive. reevaluation of results: positive

O[C@@H]([C@H](O)[C@H](O)CBr)[C@H](O)CBr
inactive: [1] inactive; negative | [3] inactive; negative | Test System: E. COLI, Strain/Indicator: WP2 (HCR), Metabolic Activation: NONE, Method: STANDARD PLATE inactive; negative
active: Test System: AMES SALMONELLA TYPHIMURIUM, Strain/Indicator: TA100, Metabolic Activation: S-9, Method: STANDARD PLATE active; positive | Test System: E. COLI, Strain/Indicator: WP2 (HCR), Metabolic Activation: S-9, Method: STANDARD PLATE active; positive

O=S(=O)(Nc1ccc(Cl)cc1Cl)c1cccc2cccnc12
inactive: [1] inactive; negative | Test System: AMES SALMONELLA TYPHIMURIUM, Strain/Indicator: TA98, Metabolic Activation: RAT, LIVER, S-9, AROCLOR 1254, Method: STANDARD PLATE inactive; negative | [3] inactive; negative | Test System: AMES SALMONELLA TYPHIMURIUM, Strain/Indicator: TA100, Metabolic Activation: RAT, LIVER, S-9, AROCLOR 1254, Method: STANDARD PLATE inactive; negative | [5] inactive; negative | Test System: AMES SALMONELLA TYPHIMURIUM, Strain/Indicator: TA1535, Metabolic Activation: RAT, LIVER, S-9, AROCLOR 1254, Method: STANDARD PLATE inactive; negative | [7] inactive; negative | Test System: AMES SALMONELLA TYPHIMURIUM, Strain/Indicator: TA1537, Metabolic Activation: RAT, LIVER, S-9, AROCLOR 1254, Method: STANDARD PLATE inactive; negative
